Experimental findings from ChEMBL document CHEMBL3124883, “Halting HCV Replication with NS5A Inhibitors and NS5B Polymerase Inhibitors: Effective New Treatments of HCV Infection” (ACS Med Chem Lett, 2014) are described below.

Assay [1] deals with Hepatitis C virus. Kind of assay: Antiviral activity against HCV infected in human HuH7 cells assessed as inhibition of RNA replication after 72 hrs by luciferase reporter gene assay. Type of assay: functional, organism-based. The conditions noted are these: Hepacivirus hominis; Huh-7. For orientation: In a reporter assay the amount or activity of a reporter protein is the signal.

The test system of assay [2] is Hepatitis C virus. Kind of assay: Antiviral activity against HCV genotype 1b infected in human HuH7 cells assessed as total cellular RNA after 5 days by RT-PCR analysis. Type of assay: functional, organism-based, Hepacivirus hominis. The note with it: Huh-7, 120 h.

Calls of active or inactive are those of the source. The calls are words filed in the database; no cut-off is given here.

As for `Cn1c(-c2cnccn2)c(C2CCCC2)c2ccc(C(=O)NC3(c4nc5ccc(/C=C/C(=O)O)cc5n4C4CCC4)CCCC3)cc21`, the inhibition result in assay [1] was “Active”.

For `COC(=O)N[C@H](C(=O)N1C[C@@H](SC)C[C@H]1c1ncc(-c2ccc(-c3ccc(-c4cnc([C@@H]5C[C@H](SC)CN5C(=O)[C@@H](NC(=O)OC)c5ccccc5)[nH]4)cc3)cc2)[nH]1)c1ccccc1`, the EC50 in assay [2] is less than 1 nM. On to `C/C(=C\c1ccc2nc(C3(NC(=O)c4ccc5c(C6CCCC6)c(-c6cccc7cc(C)[nH]c67)n(C)c5c4)CCC3)n(C)c2c1)C(=O)O`, for which the inhibition entry in assay [1] was “Active”. Still for that read-out and setting: for `Cc1c(-c2ccccn2)n(C2CCCC2)c2ccc(C(=O)NC3(c4nc5cc(/C=C/C(=O)O)ccc5n4C)CCC3)cc12` the value was “Active”.

With `COC(=O)N[C@@H](CC(C)C)C(=O)N1CCC[C@H]1c1ncc(-c2ccc(-c3ccccc3)cc2)[nH]1`, in assay [2], the concentration for a half-maximal effect (EC50) was 100 nM. As for `Cn1c(C2(NC(=O)c3ccc4c(C5CCCC5)c(-c5ccccn5)n(C)c4c3)CCC2)nc2cc(/C=C/C(=O)O)ccc21`, the inhibition result in assay [1] was “Active”. With `C#Cc1ccc(-c2cn(-c3ccc(-c4cnc(-c5cnc([C@@H]6CCCN6C(=O)[C@@H](NC(=O)OC)C(C)C)[nH]5)[nH]4)cc3)nn2)cc1`, the EC50 in assay [2] was 1 nM.

The EC50 is the midpoint of the concentration-response curve.
